Reference: patent US10092622B2 (M[…] University Research and Technology Corporation, priority 2009, dated 2018)
Entries after “also recorded” stand apart in the source; their conditions may differ. Where two headings read alike, the source gives them in different places. Numbered stars: 1 amine (or outer) side, 2 acyl side, 3 side chain; on linkers, the order of the positions; unused ones are H or OH. Bridge positions count the residues as written; N and C are the ends. Square brackets hold non-standard residues; d marks the D form. Peptide text beside a SMILES is read from it. * marks the point of attachment. hTyr(3S-OH,4S-OH,3'-OSO3H) = N[C@H](C(=O)O)[C@H](O)[C@@H](O)c1ccc(O)c(OS(=O)(=O)O)c1; Orn(4R-OH,5R-OH) = O=C([C@H](C[C@@H](O)[C@@H](O)N[*:3])N[*:1])[*:2]; Pro(3S-OH,4S-Me) = C[C@H]1CN[C@H](C(=O)O)[C@H]1O; X1 = CCCCCOc1ccc(-c2cc(-c3ccc(C(=O)*)cc3)no2)cc1; Gln(3R-OH) = NC(=O)C[C@@H](O)[C@H](N)C(=O)O; Hyp = O=C(O)[C@@H]1C[C@@H](O)CN1

Key:
[1] = tested on: A. fumigatus; details: cited from earlier work
[2] = tested on: Fusarium oxysporum f. sp. lycopersici ATCC9848; assay: Antifungal susceptibility testing, agar micro-dilution; format: cell-based; details: 48 hours
From the text: (§1) Microbial organisms. Fungal strains were obtained from collections at Mississippi State University's Veterinary Medical Research and Diagnostic Laboratory System and Entomology and Plant Pathology Department or were purchased from the American Type Culture Collection (Manassas, Va.). Fungal isolates used in this study were Alternaria alternata, Aspergillus fumigatus, Aspergillus niger; Fusarium oxysporum f. sp. lycopersici ATCC9848, Geotrichum candidum F-260, Macrophomina phaseolina 61, Microsporum gypseum, Penicillium sp., Rhizoctonia solani MSCOT-I, and Trichophyton mentagrophytes. In addition, two Pythium species were tested: Pythium spinosum 472-04 and Pythium ultimum 671-04.
(§2) Antifungal susceptibility testing. Minimum inhibitory concentrations were determined by agar micro-dilution testing. […] One (1) mL of Sabouraud dextrose agar Difco™ (BD Diagnostics, Franklin Lakes, N.J.) was added to each well. Once the agar solidified, the plates were stored inverted at 4° C. until used. Fungal cultures were grown on 100×15 mm Sabouraud dextrose agar plates (Thermo Fisher Scientific Remel Products, Lenexa, Kans.) at 22° C. for 7 days. A circular punch, containing a 1 cm in diameter plug of the fungi from the agar plate, was made from an area of the plate having a confluent growth of the fungi. The plug was place in 3 mL of PBS and ground with approximately 30 strokes of a Ten-brock homogenizer. Five (5) μL of the supernatant was placed in the center of each well and allowed to dry before incubating the microtiter plates at 22° C. Minimum inhibitory concentrations were measured at 48 hours for each species, except for Trichophyton mentagrophytes, which was measured at 72 hours. MICS were determined as the lowest concentration that inhibited visible fungal growth.

[3] = tested on: Macrophomina phaseolina 61; assay: as above; format: cell-based; details: 48 hours
From the text: as §1, §2

[4] = tested on: Microsporum gypseum; assay: as above; format: cell-based; details: 48 hours
From the text: as §1, §2

[5] = tested on: Pythium spinosum 472-04; assay: as above; format: cell-based; details: P. spinosum; 48 hours
From the text: as §1, §2

[6] = tested on: Trichophyton mentagrophytes; assay: as above; format: cell-based; details: 72 hours
From the text: as §1, §2

[7] = tested on: Rhizoctonia solani MSCOT-I; assay: as above; format: cell-based; details: R. solani
From the text: as §1, §2

[8] = tested on: Aspergillus niger; assay: as above; format: cell-based; details: A. niger; 48 hours
From the text: as §1, §2

[9] = tested on: Penicillium sp.; assay: as above; format: cell-based; details: 48 hours
From the text: as §1, §2

[10] = tested on: Aspergillus fumigatus; assay: as above; format: cell-based; details: A. fumigatus; 48 hours
From the text: as §1, §2

[11] = tested on: Pythium ultimum 671-04; assay: as above; format: cell-based; details: P. ultimum; 48 hours
From the text: as §1, §2

[12] = tested on: Alternaria alternata; assay: as above; format: cell-based; details: 48 hours
From the text: as §1, §2

[13] = tested on: Geotrichum candidum F-260; assay: as above; format: cell-based; details: G. candidum; 48 hours
From the text: as §1, §2

[14] = tested on: Rhizoctonia solani; assay: Light microscopy of hyphae grown at sub-inhibitory concentration; format: cell-based; details: R. solani; subinhibitory concentration 0.5 μg/mL; versus control
Experimental: (§3) Microscopy. […] For each of the fungi, the hyphae or arthrospores with an observed MIC50 at 48 hours growing next to the MIC well were used for preparation of light microscopy and transmission electron microscopy (TEM) slides. For light microscopy, lactophenol cotton blue solution (Sigma) was used as a positive stain and mounting medium for the slide. For TEM, the G. candidum samples were fixed at 4° C. with 2.5% glutaraldehyde in 0.1 M phosphate buffer (pH 7.2). After being rinsed with the buffer, specimens were post-fixed with 2% osmium tetroxide in the phosphate buffer. The specimens washed with the phosphate butler were dehydrated in graded ethanol serials (50-100%), and then embedded in Spurr's resin. Thin sections generated with a Reichert-Jung Ultracut E Ultramicrotome (60-90 nm) were double stained with uranyl acetate and lead citrate as described previously. The grids were observed under a transmission electron microscope Jeol JEM-100CX11 (Joel Ltd., Tokyo, Japan). Images were taken at magnifications between 5,000 and 8,000.

[15] = tested on: Geotrichum candidum; assay: Transmission electron microscopy of arthrospores; format: cell-based; details: G. candidum; subinhibitory 4 μg/mL for 48 hours; TEM; versus untreated
Experimental: as §3

[16] = tested on: Geotrichum candidum; assay: Light microscopy of arthrospores; format: cell-based; details: G. candidum; 4 μg/mL for 48 hours; versus untreated
Experimental: as §3

Molecule | hyphal morphology ([1]; inhibitory concentrations) | hyphal morphology ([1]; sub-inhibitory concentrations) | MIC [2] [µg/mL] | concentration with significant growth inhibition [2] [µg/mL] | MIC [3] [µg/mL] | MIC [4] [µg/mL] | MIC [5] [µg/mL] | MIC [6] [µg/mL] | reduction in growth ([7]; 0.5 μg/mL occidiofungin) [%] | concentration with significant growth inhibition (MIC50, >50% growth inhibition) ([7]; 48 hours) [µg/mL] | MIC [8] [µg/mL] | MIC [9] [µg/mL] | MIC [10] [µg/mL] | MIC [11] [µg/mL] | MIC [12] [µg/mL] | MIC [13] [µg/mL] | concentration with remarkable growth inhibition (MIC50) [13] [µg/mL] | hyphal morphology [14] | cell wall thickness [15] | arthrospore/cell morphology [16]
CCCCCOc1ccc(-c2cc(-c3ccc(C(=O)N[C@H]4C[C@@H](O)[C@@H](O)NC(=O)[C@@H]5[C@@H](O)[C@@H](C)CN5C(=O)[C@H]([C@H](O)CC(N)=O)NC(=O)[C@H]([C@H](O)[C@@H](O)c5ccc(O)c(OS(=O)(=O)O)c5)NC(=O)[C@@H]5C[C@@H](O)CN5C(=O)[C@H]([C@@H](C)O)NC4=O)cc3)no2)cc1 [micafungin] (X1-[Orn(4R-OH,5R-OH)]T[Hyp][hTyr(3S-OH,4S-OH,3'-OSO3H)][Gln(3R-OH)][Pro(3S-OH,4S-Me)]; lactam 1-C) | hyphal burst | undulated membranes and deformed hyphae tips |  |  |  |  |  |  |  |  |  |  |  |  |  |  |  |  |  | 
occidiofungin |  |  | > 32 | 16 | 2 | 4 | 1 | 4 | > 50 | 0.5 | 4 | 32 | 8 | 2 | 8 | 8 | 4 | significant hyphal morphological changes | drastically reduced; also recorded: dramatic decrease in cell wall thickness | significant swelling of the cells; also recorded: amorphous shapes due to cellular swelling
